IC50, EC50 and melting point data for 11 compounds are collected here from patent US7772183B2 (Bristol-Myers Squibb Company, priority 2005, dated 2010).

A word on the IC50: it is the concentration that gives 50% inhibition. Usually EC50 stands for the midpoint of the concentration-response curve. The term melting point denotes the temperature of the solid-liquid transition.

For data set [1], the target named is T1, HCV NS3/4A protease complex, BMS strain (UniProt P27958, species not given/STRAIN_BMS).
T1 construct: said of H77 and J4L6S; fused on or other part: A three-lysine solubilising tail at the C-terminus of NS4A and a His tag (pET21b, Ni-NTA purification)
Briefly: FRET peptide assay to monitor HCV NS3/4A proteolytic activity (BMS strain). The format is biochemical, Hepatitis C virus (genotype 1a). The settings on record: NS3/4A BMS strain; read-out: IC50 Range. The text has this:
HCV NS3 protease complexes, derived from the BMS strain, H77 strain or J4L6S strain, were generated, as described below. These purified recombinant proteins were generated for use in a homogeneous assay (see below) to provide an indication of how effective compounds of the present disclosure would be in inhibiting HCV NS3 proteolytic activity.
Serum from an HCV-infected patient was obtained from Dr. T. Wright, San Francisco Hospital. An engineered full-length cDNA (compliment deoxyribonucleic acid) template of the HCV genome (BMS strain) was constructed from DNA fragments obtained by reverse transcription-PCR (RT-PCR) of serum RNA (ribonucleic acid) and using primers selected on the basis of homology between other genotype 1a strains. From the determination of the entire genome sequence, a genotype 1a was assigned to the HCV isolate according to the classification of Simmonds et al. (See P Simmonds, K A Rose, S Graham, S W Chan, F McOmish, B C Dow, E A Follett, P L Yap and H Marsden, J. Clin. Microbiol., 31(6), 1493-1503 (1993)). […] The infectious clones, H77 (1a genotype) and J4L6S (1b genotype) were obtained from R. Purcell (NIH) and the sequences are published in Genbank (AAB67036, see Yanagi, M., Purcell, R. H., Emerson, S. U. and Bukh, J. Proc. Natl. Acad. Sci. U.S.A. 94(16), 8738-8743 (1997); AF054247, see Yanagi, M., St Claire, M., Shapiro, M., Emerson, S. U., Purcell, R. H. and Bukh, J, Virology 244 (1), 161-172. (1998)).
The H77 and J4L6S strains were used for production of recombinant NS3/4A protease complexes. DNA encoding the recombinant HCV NS3/4A protease complex (amino acids 1027 to 1711) for these strains were manipulated as described by P. Gallinari et al. (see Gallinari P, Paolini C, Brennan D, Nardi C, Steinkuhler C, De Francesco R. Biochemistry. 38(17):5620-32, (1999)). Briefly, a three-lysine solubilizing tail was added at the 3′-end of the NS4A coding region. The cysteine in the P1 position of the NS4A-NS4B cleavage site (amino acid 1711) was changed to a glycine to avoid the proteolytic cleavage of the lysine tag. Furthermore, a cysteine to serine mutation was introduced by PCR at amino acid position 1454 to prevent the autolytic cleavage in the NS3 helicase domain. The variant DNA fragment was cloned in the pET21b bacterial expression vector (Novagen) and the NS3/4A complex was expressed in Escherichia coli strain BL21 (DE3) (Invitrogen) following the protocol described by P. Gallinari et al. (see Gallinari P, Brennan D, Nardi C, Brunetti M, Tomei L, Steinkuhler C, De Francesco R., J Virol. 72(8):6758-69 (1998)) with modifications. Briefly, the NS3/4A protease complex expression was induced with 0.5 mM Isopropyl β-D-1-thiogalactopyranoside (IPTG) for 22 hours (h) at 20° C. A typical fermentation (1 Liter (L)) yielded approximately 10 grams (g) of wet cell paste. The cells were resuspended in lysis buffer (10 mL/g) consisting of 25 mM N-(2-Hydroxyethyl)Piperazine-N′-(2-Ethane Sulfonic acid) (HEPES), pH 7.5, 20% glycerol, 500 mM Sodium Chloride (NaCl), 0.5% Triton X-100, 1 microgram/milliliter (“μg/mL”) lysozyme, 5 mM Magnesium Chloride (MgCl2), 1 μg/ml Dnasel, 5 mM β-Mercaptoethanol (βME), Protease inhibitor-Ethylenediamine Tetraacetic acid (EDTA) free (Roche), homogenized and incubated for 20 minutes (min) at 4° C. The homogenate was sonicated and clarified by ultra-centrifugation at 235000 g for 1 h at 4° C. Imidazole was added to the supernatant to a final concentration of 15 mM and the pH adjusted to 8.0. The crude protein extract was loaded on a Nickel-Nitrilotriacetic acid (Ni-NTA) column pre-equilibrated with buffer B (25 mM HEPES, pH 8.0, 20% glycerol, 500 mM NaCl, 0.5% Triton X-100, 15 mM imidazole, 5 mM βME). The sample was loaded at a flow rate of 1 mL/min. The column was washed with 15 column volumes of buffer C (same as buffer B except with 0.2% Triton X-100). The protein was eluted with 5 column volumes of buffer D (same as buffer C except with 200 mM Imidazole). […]

The test system of data set [2] is HCV replicon in HUH-7 cells. Briefly: HCV replicon FRET assay. The settings on record: Hepatitis C virus, Huh-7; HCV replicon, for compounds tested; read-out: EC50 Range. The format is cell-based, Hepatitis C virus (strain 1b). The text has this: An HCV replicon whole cell system was established as described by Lohmann V, Komer F, Koch J, Herian U, Theilmann L, Bartenschlager R., Science 285(5424):110-3 (1999). This system enabled us to evaluate the effects of our HCV Protease compounds on HCV RNA replication. Briefly, using the HCV strain 1b sequence described in the Lohmann paper (Assession number: AJ238799), an HCV cDNA was synthesized by Operon Technologies, Inc. (Alameda, Calif.), and the full-length replicon was then assembled in plasmid pGem9zf(+) (Promega, Madison, Wis.) using standard molecular biology techniques. The replicon consists of (i) the HCV 5′ UTR fused to the first 12 amino acids of the capsid protein, (ii) the neomycin phosphotransferase gene (neo), (iii) the IRES from encephalomyocarditis virus (EMCV), and (iv) HCV NS3 to NS5B genes and the HCV 3′ UTR. Plasmid DNAs were linearized with Scal and RNA transcripts were synthesized in vitro using the T7 MegaScript transcription kit (Ambion, Austin, Tex.) according to manufacturer's directions. In vitro transcripts of the cDNA were transfected into the human hepatoma cell line, HUH-7. […] Resulting cell lines were characterized for positive and negative strand RNA production and protein production over time.
The HCV replicon FRET assay was developed to monitor the inhibitory effects of compounds described in the disclosure on HCV viral replication. HUH-7 cells, constitutively expressing the HCV replicon, were grown in Dulbecco's Modified Eagle Media (DMEM) (Gibco-BRL) containing 10% Fetal calf serum (FCS) (Sigma) and 1 mg/ml G418 (Gibco-BRL). Cells were seeded the night before (1.5×10^4 cells/well) in 96-well tissue-culture sterile plates. Compound and no compound controls were prepared in DMEM containing 4% FCS, 1:100 Penicillin/Streptomysin (Gibco-BRL), 1:100 L-glutamine and 5% DMSO in the dilution plate (0.5% DMSO final concentration in the assay). Compound/DMSO mixes were added to the cells and incubated for 4 days at 37° C. After 4 days, cells were first assessed for cytotoxicity using alamar Blue (Trek Diagnotstic Systems) for a CC50 reading. The toxicity of compound (CC50) was determined by adding 1/10th volume of alamar Blue to the media incubating the cells. After 4 hours, the fluorescence signal from each well was read, with an excitation wavelength at 530 nm and an emission wavelength of 580 nm, using the Cytofluor Series 4000 (Perspective Biosystems). Plates were then rinsed thoroughly with Phosphate-Buffered Saline (PBS) (3 times 150 μl). The cells were lysed with 25 μl of a lysis assay reagent containing an HCV protease substrate (5× cell Luciferase cell culture lysis reagent (Promega #E153A) diluted to 1× with distilled water, NaCl added to 150 mM final, the FRET peptide substrate (as described for the enzyme assay above) diluted to 10 μM final from a 2 mM stock in 100% DMSO. […]. The plate was then placed into the Cytofluor 4000 instrument which had been set to 340 nm excitation/490 nm emission, automatic mode for 21 cycles and the plate read in a kinetic mode. EC50 determinations were carried out as described for the IC50 determinations.
(In general: Replicon systems follow genome replication, usually without infectious particles.)

T1 sequence (P27958 1027-1657, change not shown, one chain of several): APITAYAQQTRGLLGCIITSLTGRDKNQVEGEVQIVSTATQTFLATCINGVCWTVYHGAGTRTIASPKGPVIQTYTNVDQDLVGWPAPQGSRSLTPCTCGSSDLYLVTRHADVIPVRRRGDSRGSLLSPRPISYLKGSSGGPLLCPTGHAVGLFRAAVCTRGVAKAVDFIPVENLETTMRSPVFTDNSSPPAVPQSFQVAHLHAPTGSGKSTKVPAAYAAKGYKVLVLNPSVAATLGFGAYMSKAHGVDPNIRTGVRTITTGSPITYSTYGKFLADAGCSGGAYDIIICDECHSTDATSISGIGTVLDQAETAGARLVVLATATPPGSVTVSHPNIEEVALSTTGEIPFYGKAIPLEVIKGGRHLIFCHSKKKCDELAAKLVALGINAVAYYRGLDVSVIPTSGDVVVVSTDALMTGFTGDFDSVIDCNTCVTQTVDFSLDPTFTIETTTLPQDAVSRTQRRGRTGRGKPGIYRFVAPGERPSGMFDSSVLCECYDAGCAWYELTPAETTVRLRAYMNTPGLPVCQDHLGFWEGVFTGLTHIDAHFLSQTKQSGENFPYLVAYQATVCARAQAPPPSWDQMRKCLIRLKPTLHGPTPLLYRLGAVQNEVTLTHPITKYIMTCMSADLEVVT

With `CC(C)(C)OC(=O)N[C@H]1CCCCC/C=C\[C@@H]2C[C@@]2(C(=O)NS(=O)(=O)C2CC2)NC(=O)[C@@H]2C[C@@H](OC(=O)c3cc4ccccc4o3)CN2C1=O`, in data set [1], the IC50 was under 100 nM. Further, the EC50 in data set [2] is under 100 nM.

As to `CN(C)S(=O)(=O)NC(=O)[C@@]12C[C@H]1/C=C\CCCCC[C@H](NC(=O)OC(C)(C)C)C(=O)N1C[C@H](OC(=O)c3ccc4c(c3)OCCO4)C[C@H]1C(=O)N2`, the IC50 in data set [1] is under 100 nM. In data set [2], the EC50 was under 100 nM.

In the case of `CC(C)(C)OC(=O)N[C@H]1CCCCC/C=C\[C@@H]2C[C@@]2(C(=O)NS(=O)(=O)C2CC2)NC(=O)[C@@H]2C[C@@H](OC(=O)c3cccc(F)c3)CN2C1=O`, the IC50 in data set [1] is under 100 nM. Also, in data set [2], the EC50 is under 100 nM.

Regarding `Cc1onc(-c2ccccc2)c1C(=O)O[C@@H]1C[C@H]2C(=O)N[C@]3(C(=O)NS(=O)(=O)C4CC4)C[C@H]3/C=C\CCCCC[C@H](NC(=O)OC(C)(C)C)C(=O)N2C1`, the IC50 in data set [1] is under 100 nM. Moreover, the EC50 in data set [2] was under 100 nM.

`CCC(C(=O)O[C@@H]1C[C@H]2C(=O)N[C@]3(C(=O)NS(=O)(=O)C4CC4)C[C@H]3/C=C\COCCC[C@H](NC(=O)OC(C)(C)C)C(=O)N2C1)c1ccccc1` (mixture of isomers) [Compound 5, 18-(2-phenylbutyryloxy)-14-tert-butoxycarbonylamino-4-cyclopropylsulfonylaminocarbonyl-2,15-dioxo-3,16-diaza-10-oxatricyclo-[14.3.0.0^4,6]-nonadec-7-ene] displayed a melting point of 113 to 115 °C. Also, the IC50 in data set [1] is under 100 nM. In addition, the concentration for a half-maximal effect (EC50) in data set [2] was over 1000 nM.

`CC(C)(C)OC(=O)N[C@H]1COCCC/C=C\[C@@H]2C[C@@]2(C(=O)NS(=O)(=O)C2CC2)NC(=O)[C@@H]2C[C@@H](OC(=O)Nc3ccc(-c4ccccc4)cc3)CN2C1=O` [Compound 39, 18-(4-biphenylaminocarbonyloxy)-14-tert-butoxycarbonylamino-4-cyclopropylsulfonylaminocarbonyl-2,15-dioxo-3,16-diaza-12-oxatricyclo-[14.3.0.0^4,6]-nonadec-7-ene] came in with a melting point of 170 to 173 °C. Besides, the half-inhibitory concentration (IC50) in data set [1] is over 1000 nM.

As for `CC(C)(C)OC(=O)N[C@H]1COCCC/C=C\[C@@H]2C[C@@]2(C(=O)NS(=O)(=O)C2CC2)NC(=O)[C@@H]2C[C@@H](OC(=O)N3Cc4cccc(F)c4C3)CN2C1=O` [Compound 46, 18-(2-[4-fluoroisoindoline]carbonyloxy)-14-tert-butoxycarbonylamino-4-cyclopropylsulfonylaminocarbonyl-2,15-dioxo-3,16-diaza-12-oxatricyclo-[14.3.0.0^4,6]-nonadec-7-ene], the half-maximal inhibitory concentration (IC50) in data set [1] is under 100 nM. Moreover, the EC50 in data set [2] was under 100 nM.

In the case of `CC(C)(C)OC(=O)N[C@H]1CCCCC/C=C\[C@@H]2C[C@@]2(C(=O)O)NC(=O)[C@@H]2C[C@@H](OC(=O)Nc3ccccc3-c3ccccc3)CN2C1=O` [Compound 47], the IC50 in data set [1] is over 1000 nM.

Turning to `CC(C)(C)OC(=O)N[C@H]1CCCCC/C=C\[C@@H]2C[C@@]2(C(=O)NS(=O)(=O)C2CC2)NC(=O)[C@@H]2C[C@@H](OC(=O)Nc3ccccc3-c3ccccc3)CN2C1=O` [Compound 48], the IC50 in data set [1] was under 100 nM. In addition, in data set [2], the 50% effective concentration (EC50) was under 100 nM.

Consider `CC(C)(C)OC(=O)N[C@H]1CN(C2CC2)CCC/C=C\[C@@H]2C[C@@]2(C(=O)NS(=O)(=O)C2CC2)NC(=O)[C@@H]2C[C@@H](OC(=O)c3ccc4nccnc4c3)CN2C1=O` [Compound 49], for which the IC50 in data set [1] was under 100 nM. Further, the concentration giving a half-maximal response (EC50) in data set [2] was under 100 nM.

`CC(C)(C)OC(=O)N[C@H]1CN(C2CC2)CCC/C=C\[C@@H]2C[C@@]2(C(=O)NS(=O)(=O)C2CC2)NC(=O)[C@@H]2C[C@@H](OC(=O)N3Cc4cccc(F)c4C3)CN2C1=O` [Compound 50]: the IC50 in data set [1] was under 100 nM. In data set [2], the EC50 was under 100 nM.
